# From the supplement of paper PMC10307832
# Experiments:
# Test in all cases: relative viability (nuclei count vs DMSO), 5 days (fraction); higher = more cells survive
# Bromopyruvate = compound: C(C(=O)C(=O)O)Br [Bromopyruvate]
# In short: (§1)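 Cells of lung cancer lines were placed in 1536-well plates and kept overnight at 37 °C. Pinning then delivered five library-drug doses (not always all listed), spaced by √10, onto plates anchored with vehicle, and the cells were left 5 days without changing medium. One step fixed, permeabilised and stained them with Hoechst, and MetaXpress counted nuclei in 4× images. Viability, as a median over plates, is treated-well nuclei divided by vehicle-well nuclei, with acceptance only at control CV below 25% and at least one doubling.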
# Bicalutamide = compound: CC(O)(CS(=O)(=O)c1ccc(F)cc1)C(=O)Nc1ccc(C#N)c(C(F)(F)F)c1 [Bicalutamide]
# In short: as §1
# Bromopyruvate + OSI-027 = compound: C(C(=O)C(=O)O)Br [Bromopyruvate] + COc1cccc2cc(-c3nc([C@H]4CC[C@H](C(=O)O)CC4)n4ncnc(N)c34)[nH]c12 [OSI-027] (partner 0.5 µM)
# In short: (§2)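 Relative viability was taken as the ratio of nuclei in treated wells to nuclei in vehicle wells. Lung cancer cell lines in 1536-well plates received compounds by pin tool one day after seeding, either one drug alone or a fixed anchor-drug dose plus five library-drug doses (not always all listed) in √10 steps. Nuclei were counted on 4× images after 5 days of treatment, and values are medians of duplicate plates.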
# [1] = compound: CC(O)(CS(=O)(=O)c1ccc(F)cc1)C(=O)Nc1ccc(C#N)c(C(F)(F)F)c1 [Bicalutamide] + Nc1nc2[nH]cc(CCc3ccc(C(=O)N[C@@H](CCC(=O)O)C(=O)O)cc3)c2c(=O)[nH]1 [Pemetrexed] (partner 0.2 µM)
# In short: as §2
Cell Line,relative viability (Bromopyruvate; 1 µM),relative viability (Bromopyruvate; 3.162 µM),relative viability (Bromopyruvate; 10 µM),relative viability (Bromopyruvate; 31.62 µM),relative viability (Bromopyruvate; 100 µM),relative viability (Bicalutamide; 0.08 µM),relative viability (Bicalutamide; 0.253 µM),relative viability (Bicalutamide; 0.8 µM),relative viability (Bicalutamide; 2.53 µM),relative viability (Bromopyruvate + OSI-027; first compound 1 µM),relative viability (Bromopyruvate + OSI-027; first compound 3.162 µM),relative viability (Bromopyruvate + OSI-027; first compound 10 µM),relative viability (Bromopyruvate + OSI-027; first compound 31.62 µM),relative viability (Bromopyruvate + OSI-027; first compound 100 µM),relative viability ([1]; first compound 0.08 µM),relative viability ([1]; first compound 0.253 µM),relative viability ([1]; first compound 0.8 µM),relative viability ([1]; first compound 2.53 µM)
NCI-H520,0.926,1.17,0.989,1.07,0.855,0.948,0.952,1.17,0.906,0.243,0.259,0.25,0.23,0.289,0.846,0.635,0.81,0.635
NCI-H522,1.06,0.975,0.941,0.939,0.785,1.07,0.828,0.999,0.991,0.74,0.715,0.684,0.718,0.706,0.923,0.854,1.22,0.979
NCI-H596,1.09,0.982,1.03,0.862,1.12,0.956,0.953,1.07,1.12,0.781,0.711,0.84,0.684,0.781,0.489,0.459,0.56,0.552
NCI-H647,1,1.08,1.17,1.03,0.951,0.987,0.886,1.37,0.893,0.618,0.744,0.689,0.653,0.633,0.187,0.172,0.172,0.151
NCI-H650,0.944,1,0.98,0.887,0.895,1.08,1.03,1.11,0.837,0.584,0.545,0.575,0.501,0.59,0.88,0.932,0.994,0.992
NCI-H661,1.02,0.992,1.02,1.01,0.972,0.987,0.998,1.04,1.01,0.719,0.67,0.685,0.64,0.749,0.939,0.965,0.942,0.896
NCI-H838,0.994,0.972,1.05,0.995,0.894,0.95,0.908,1.05,0.76,0.428,0.37,0.422,0.386,0.393,0.272,0.232,0.261,0.243
NCI-H1355,1.01,1.03,1.08,0.959,0.953,1.03,0.918,1.09,0.946,0.462,0.455,0.372,0.425,0.498,1.04,0.992,1.1,0.999
NCI-H1395,1.07,0.896,0.955,0.787,1.1,1.05,0.9,1.03,0.82,0.679,0.672,0.669,0.591,0.637,0.89,0.766,0.965,0.709
NCI-H1437,1.05,0.961,1.04,0.972,1,0.997,0.966,1.07,0.984,0.921,0.861,0.943,0.909,0.847,0.312,0.303,0.349,0.316
NCI-H1563,0.952,0.97,0.973,0.926,0.987,0.965,0.978,1.01,0.852,0.747,0.75,0.758,0.77,0.763,0.871,0.69,0.919,0.697
NCI-H1648,0.878,0.916,0.991,0.769,0.773,–,0.662,0.93,1.2,0.263,0.263,0.251,0.25,0.259,–,–,0.745,0.774
NCI-H1650,0.998,0.835,0.959,0.938,0.865,0.967,0.935,1.1,0.842,0.642,0.592,0.669,0.757,0.464,0.353,0.411,0.433,0.365
NCI-H1651,1.01,0.991,1.07,0.958,0.924,0.995,0.93,1.16,0.972,0.746,0.704,0.799,0.694,0.63,0.597,0.525,0.672,0.618
NCI-H1666,0.971,0.98,1.04,0.937,0.965,1.04,0.854,0.96,1.01,0.913,0.881,0.836,0.923,0.854,0.886,0.865,0.894,0.879
NCI-H1734,0.971,1.02,1.15,1,0.979,0.991,0.886,1.14,0.926,0.599,0.611,0.731,0.562,0.595,0.428,0.405,0.455,0.393
NCI-H1755,0.977,0.964,1.06,1.01,1.02,0.988,1.01,1.05,0.876,0.77,0.773,0.729,0.777,0.726,0.386,0.379,0.434,0.477
NCI-H1792,1.14,1.21,0.805,0.811,0.928,0.987,0.779,1.19,0.962,0.798,0.79,0.782,–,0.649,0.825,0.658,1.16,0.831

Cell Line,relative viability (Bromopyruvate; 1 µM),relative viability (Bromopyruvate; 3.162 µM),relative viability (Bromopyruvate; 10 µM),relative viability (Bromopyruvate; 31.62 µM),relative viability (Bromopyruvate; 100 µM),relative viability (Bicalutamide; 0.08 µM),relative viability (Bicalutamide; 0.253 µM),relative viability (Bicalutamide; 0.8 µM),relative viability (Bicalutamide; 2.53 µM),relative viability (Bromopyruvate + OSI-027; first compound 1 µM),relative viability (Bromopyruvate + OSI-027; first compound 3.162 µM),relative viability (Bromopyruvate + OSI-027; first compound 10 µM),relative viability (Bromopyruvate + OSI-027; first compound 31.62 µM),relative viability (Bromopyruvate + OSI-027; first compound 100 µM),relative viability ([1]; first compound 0.08 µM),relative viability ([1]; first compound 0.253 µM),relative viability ([1]; first compound 0.8 µM),relative viability ([1]; first compound 2.53 µM)
NCI-H1793,1.03,1.09,1.12,0.959,1.08,0.823,0.736,1.02,0.809,0.329,0.285,0.249,0.282,0.381,0.914,–,1.07,0.907
NCI-H1915,1.02,0.984,1,1.01,0.997,1.01,0.922,1.14,0.964,0.669,0.612,0.665,0.637,0.677,0.509,0.516,0.481,0.48
NCI-H1944,1.02,0.995,0.967,0.904,1,0.993,0.873,1.06,0.978,0.462,0.459,0.49,0.415,0.464,0.562,0.599,0.681,0.611
NCI-H1975,1.02,0.962,1,0.939,0.906,0.935,0.942,0.998,0.775,0.742,0.912,0.687,0.731,0.718,0.316,0.311,0.299,0.306
NCI-H1993,0.833,1.01,1.1,0.945,0.951,0.896,0.811,0.987,0.996,0.623,0.513,0.525,0.549,0.539,0.66,0.669,0.557,0.597
NCI-H2009,0.975,1.04,0.96,0.925,0.734,1.11,1.05,1.04,0.927,0.6,0.66,0.669,0.545,0.305,1.13,1.04,1.11,0.91
NCI-H2023,0.893,0.962,1.15,0.958,0.959,1.01,0.903,1.17,0.907,0.391,0.39,0.49,0.388,0.374,0.267,0.175,0.279,0.223
NCI-H2085,1,1.04,1.03,1.07,1.02,1.01,0.955,1.01,0.94,0.794,0.931,0.798,0.726,0.797,0.837,0.708,0.912,0.775
NCI-H2087,0.947,1.07,1.09,1.04,0.974,1.09,1.06,1.25,1.07,0.55,0.612,0.637,0.542,0.462,0.684,0.662,0.695,0.613
NCI-H2126,1.03,0.995,1.05,0.958,1.03,0.967,0.949,1.01,0.95,0.756,0.707,0.65,0.668,0.824,0.675,0.597,0.785,0.638
NCI-H2170,0.938,0.947,0.95,0.969,1.01,0.916,0.931,1.1,0.987,0.469,0.686,0.769,0.761,0.743,0.251,0.262,0.281,0.25
NCI-H2228,1.07,1.04,1.27,0.851,1.02,0.798,0.967,1.56,1.09,0.539,0.554,0.755,0.518,0.551,0.343,0.351,0.334,0.323
NCI-H2342,0.975,0.912,1.02,0.949,0.903,1.06,0.978,1.07,1.03,0.552,0.603,0.542,0.545,0.497,0.764,0.761,0.89,0.751
NCI-H2347,1.06,0.956,1.01,0.837,1.03,1.1,0.913,1.19,1.03,0.453,0.401,0.379,0.357,0.375,0.463,0.444,0.453,0.445
NCI-H2405,1.06,0.968,0.984,0.873,1.05,1.07,0.968,1.18,0.926,0.585,0.659,0.634,0.556,0.663,1.07,1.01,1.35,1.04
NCI-H3122,0.992,1.01,0.999,0.972,1.01,1.03,0.977,1.01,1.03,0.914,1.13,1.27,0.964,1.06,0.202,0.193,0.197,0.199
PC-3 [JPC-3],1.08,1.04,0.986,1.01,1.04,1.07,1.03,1.16,1.03,0.814,0.77,0.709,0.783,0.735,1.08,1.11,1.41,1.12
